Test system: SKOV3 cells
Test: Sulforhodamine B (SRB) assay, single agent
Format: cell-based
Conditions: 24 hours exposure, SRB assay on day 4
Protocol: SKOV3 cells were purchased from American Type Culture Collection (ATCC). They were cultured at 37° C. and 5% CO2 in Gibco™ RMPI Medium 1640+GlutaMAX™-I (Life Technologies; 61870-010) with 10% Gibco™ FBS (Life Technologies; 10270-106) and 1% Gibco™ Penicillin-Streptomycin (Life Technologies; Ser. No. 15/140,122), known as complete medium, in a cell culture flask. Cisplatin was purchased from TEVA UK Limited (PL 00289/1146). Fluvastatin and Sulforaphane were both purchased from Merck Millipore Corporation (Catalogue numbers 344096 and 574215 respectively). (S)-NUC-1031 was provided by NuCana® Ltd.
SKOV3 cells were plated at 250 cells in 200 μl per well in the middle 60 wells of Costar® 3596 96-well plates, with the outer 36 wells filled with 200 μl PBS each. The cells were allowed to grow in complete medium for 48 hours before different drug compounds were added in. For single agent, cisplatin, (S)-NUC-1031, fluvastatin and sulforaphane in complete medium at 10 different concentrations were added into the middle 60 wells (Day 0). Each concentration was loaded in sextuplicate. Cells were exposed to the compounds for 24 hours and the compounds were replaced by pure complete medium. The experiment with fluvastatin was repeated with 4-day exposure instead of 24 hours. The plates were fixed with 50 μl 25% TCA solution at 4° C. for 60 minutes on day 4 after the drug compounds were added for Sulforhodamine B assay (see below).
After adding the TCA solution, the plates were washed under running tap water 10 times and were allowed to dry in the oven at 50° C. The cells were then stained with 50 μl SRB dye, and the dye was washed off with 1% glacial acetic acid for 4 times 30 minutes after SRB addition. The plates were then dried in the oven. SRB dye was allowed to dissolve in 150 μl 10 mM Tris buffer solution for 60 minutes on a rocker. The plates were read on Biohit BP800 Microplate Reader (Biohit Healthcare) and the absorbance was measured at 540 nm. […]

## C[C@H](NP(=O)(OC[C@H]1O[C@@H](n2ccc(N)nc2=O)C(F)(F)[C@H]1O)Oc1ccccc1)C(=O)OCc1ccccc1 (stereo partly drawn) [NUC-1031, 2′-Deoxy-2′,2′-difluoro-D-cytidine-5′-O-[phenyl (benzoxy-L-alaninyl)] phosphate]
  IC50: could not be calculated due to unobservable inhibitory effects

From patent US20190022117A1, “COMBINATION THERAPY” (NuCana plc, priority 2015, published 2019)
